We go through 5 compounds from US4382925A.

One data set relates to vaccinia virus. Nature of the data set: microbe, parasite or virus in culture. The class given is cell-based. The settings on record: Orthopoxvirus vaccinia.
Data set [1] has as its system Herpes simplex-1 strain KOS. The experiment in a line: Inhibition of cytopathic effect of herpes simplex-1 virus strain KOS in PRK and HSF cell cultures (Test 1). The class given is cell-based. The settings on record: average of three experiments. On the technique in general: Cytopathic effects are the visible damage that an infection or toxin causes in cultured cells.

Data set [2] concerns Herpes simplex-1 strain McIntyre. Nature of the data set: Inhibition of cytopathic effect of herpes simplex-1 virus strain McIntyre in PRK cell cultures (Test 1). In kind it is cell-based. Particulars: PRK cells, average of three experiments, read-out: ID50, Herpes simplex-1 strain McIntyre (PRK).
Data set [3] relates to Herpes simplex-1 strain F. Nature of the data set: Inhibition of cytopathic effect of herpes simplex-1 virus strain F in PRK cell cultures (Test 1). The class given is cell-based. The settings on record: PRK cells, average of three experiments, read-out: ID50, Herpes simplex-1 strain F (PRK).
In data set [4] the test system is (Methyl-^3 H)TdR incorporation into cell DNA, PRK cell cultures. The settings on record: separate experiments reported by De Clercq et al., PNAS 76, 2947-2951 (1979); cited from earlier work.
Data set [5] deals with (2-^14 C)UdR incorporation into cell DNA, PRK cell cultures. Particulars: separate experiments reported by De Clercq et al., PNAS 76, 2947-2951 (1979); cited from earlier work.
The subject of data set [6] is herpes simplex-1 (strain KOS) virus. Particulars: separate experiments, De Clercq et al., PNAS 1979; cited from earlier work.
Data set [7] relates to cell culture. The settings on record: prior art literature; cited from earlier work.
Data set [8] concerns herpes simplex-1 (strain KOS) virus. Particulars: dose 10 μl/ml [sic].
The nature of data set [9]: Antimetabolic activity in PRK cell cultures: (methyl-^3 H)TdR incorporation into cell DNA (Test 3). In kind it is cell-based. Particulars: rabbit, PRK cells, read-out: ID50, (Methyl-^3 H)TdR incorporation into cell DNA. On the procedure: (§1) To this end, the incorporation of certain radiolabelled DNA precursors into DNA of the cells, and the effect of 5-(2-halogenovinyl)-2'-deoxycytidines and related compounds thereon, was tested. The technique has been described by De Clercq et al in Biochemical Pharmacology, 26, 794-797 (1977) and by De Clercq et al in Molecular Pharmacology, 14, 422-430, (1978).
(§2) The DNA precursors as used were (methyl-^3 H), (2'-deoxythymidine ) (TdR), and (2-^14 C) (2'-deoxyuridine) (UdR).
(§3) The cells were exposed to 0.12 μCi:0.01 nmol (methyl-^3 H)TdR (per 10^5 cells) or 14 μCi/250 nmol (2-^14 C) UdR (per 10^5 cells) for 16 hours in the presence of varying concentrations of the compounds (ranging from 1 to 200 μg/ml). Incorporation of the radiolabelled precursor was then measured as described and the ID50 was determined. ID50 corresponds to the inhibitory dose-50, that is the concentration of compound required to inhibit incorporation of either (methyl-^3 H)TdR or (2-^14 C)UdR by 50%.

The nature of data set [10]: Antimetabolic activity in PRK cell cultures: (2-^14 C)UdR incorporation into cell DNA (Test 3). In kind it is cell-based. Particulars: rabbit, PRK cells, read-out: ID50, (2-^14 C)UdR incorporation into cell DNA. On the procedure: as §1, §2, §3
Data set [11] concerns herpes simplex virus. The experiment in a line: Antiviral activity against herpes simplex virus in cell culture, overall statements. In kind it is cell-based. The settings on record: in words.
Data set [12] concerns cell culture. Nature of the data set: Toxicity in cell culture, overall statements. The class given is cell-based. The settings on record: in words. On the procedure:
as §3

Data set [13] relates to herpes simplex-1 (strain KOS) virus. The experiment in a line: Antiviral index in PRK cell cultures (Test 4). In kind it is cell-based, herpes simplex-1 virus. Particulars: ratio of ID50 for (2-^14 C)UdR incorporation to ID50 for herpes simplex-1 (strain KOS), PRK cells. On the procedure:
The antiviral index was determined as the ratio of ID50 for (2-^14 C)UdR incorporation into cell DNA to ID50 for herpes simplex-1 (strain KOS) virus replication (compare Tables 1 and 3).

Data set [14] has as its system herpes simplex virus. Particulars: De Clercq et al., PNAS 76, 2947-2951 (1979); cited from earlier work.
Where [15] appears, read: HSF, read-out: ID50, Vaccinia (HSF).
Where [16] appears, read: PRK, read-out: ID50, Vaccinia (PRK).
Where [17] appears, read: HSF cells, read-out: ID50, Herpes simplex-1 strain KOS (HSF).
Setting [18] is: PRK cells, read-out: ID50, Herpes simplex-1 strain KOS (PRK).

Converted amounts (≈) assume the structure as drawn. “Also recorded” adds a separate entry of the source. Read-outs that look alike come from different tables or passages of the source. Where only a bound is given, the exact number is not on record here.

On to `O=c1[nH]c(=O)n([C@H]2C[C@H](O)[C@@H](CO)O2)cc1I` [5-iodo-2'-deoxyuridine], for which the IC50 in the data set with vaccinia virus (setting [15]) is 0.2 µg/mL (≈ 0.565 µM); in the data set on vaccinia virus (setting [16]), 0.02 µg/mL (≈ 0.0565 µM); in data set [1] (setting [17]) it was 0.2 µg/mL (≈ 0.565 µM); in data set [1] (setting [18]), 0.1 µg/mL (≈ 0.282 µM); in data set [2] it was 0.15 µg/mL (≈ 0.424 µM); in data set [3], 0.2 µg/mL (≈ 0.565 µM). In addition, the “ID50, (Methyl-^3 H)TdR incorporation into cell DNA (data in parentheses)” value in data set [4] is 2.5 µg/mL (≈ 7.06 µM). The “ID50, (2-^14 C)UdR incorporation into cell DNA (data in parentheses)” value in [5] was 1.2 µg/mL (≈ 3.39 µM). Further, the “Antiviral index (numbers in parentheses)” value in data set [6] is 12. Besides, the “toxicity in cell culture, reported” value with cell culture [7] is reported as “cannot be neglected”. Also, the “Reduction in virus yield as compared to control (untreated virus-infected) cell cultures” value (“Reduction in virus yield” below) came to 4.0 log10 PFU/ml in data set [8] (1 day after infection), 2.6 log10 PFU/ml in [8] (2 days after infection) and 1.9 log10 PFU/ml in data set [8] (3 days after infection).

With `Nc1nc(=O)n([C@H]2C[C@H](O)[C@@H](CO)O2)cc1/C=C/Br` [E-5-(2-bromovinyl)-2'-deoxycytidine], the IC50 came out at 2 µg/mL (≈ 6.02 µM) in the data set with vaccinia virus (setting [15]); 10 µg/mL (≈ 30.1 µM) in the data set on vaccinia virus (setting [16]); 0.07 µg/mL (≈ 0.211 µM) in data set [1] (setting [17]); 0.07 µg/mL (≈ 0.211 µM) in data set [1] (setting [18]); 0.07 µg/mL (≈ 0.211 µM) in data set [2]; 0.1 µg/mL (≈ 0.301 µM) in data set [3]. In addition, the IC50 at 16 h in data set [9] and in data set [10] was greater than 200 µg/mL in each case. Also, in the data set with herpes simplex virus [11], the “specific antiviral activity against herpes simplex virus” value is “excellent and highly specific antiviral activity against herpes simplex virus; also recorded: very specific towards herpes simplex virus”. Also, the “toxicity in cell culture” value with cell culture [12] is on record as “apparently nil; also recorded: apparent lack of toxicity in cell culture”. Also, the results for the “Reduction in virus yield” value in data set [8] (1 day after infection), in data set [8] (2 days after infection) and in data set [8] (3 days after infection) were 3.8 log10 PFU/ml, 2.9 log10 PFU/ml and 2.2 log10 PFU/ml, respectively.

For the compound `O=c1[nH]c(=O)n([C@H]2C[C@H](O)[C@@H](CO)O2)cc1/C=C/Br` [E-5-(2-bromovinyl)-2'-deoxyuridine], the IC50 with vaccinia virus (setting [15]) worked out at 0.7 µg/mL (≈ 2.1 µM); with vaccinia virus (setting [16]), 7 µg/mL (≈ 21 µM); in [1] (setting [17]) it was 0.01 µg/mL (≈ 0.03 µM); in data set [1] (setting [18]), 0.007 µg/mL (≈ 0.021 µM); in data set [2], 0.01 µg/mL (≈ 0.03 µM); in [3], 0.01 µg/mL (≈ 0.03 µM). Besides, the IC50 at 16 h in data set [9] and in data set [10] was 100 µg/mL (≈ 300 µM) each time. Moreover, in data set [13], the Antiviral index stood at 14300. Moreover, the “ID50, (Methyl-^3 H)TdR incorporation into cell DNA (data in parentheses)” value in [4] is 70 µg/mL (≈ 210 µM). Also, the “ID50, (2-^14 C)UdR incorporation into cell DNA (data in parentheses)” value in data set [5] was 70 µg/mL (≈ 210 µM). Besides, the “Antiviral index (numbers in parentheses)” value in data set [6] is reported as 10000. In addition, the “antiviral activity against herpes simplex virus, reported” value with herpes simplex virus [14] is reported as “specific antiviral activity against herpes simplex virus”. Besides, the “toxicity in cell culture, reported” value in the data set on cell culture [7] is reported as “low toxicity in cell culture”.

As to `Nc1nc(=O)n([C@H]2C[C@H](O)[C@@H](CO)O2)cc1/C=C/I` [E-5-(2-iodovinyl)-2'-deoxycytidine], the IC50 with vaccinia virus (setting [15]) was 7 µg/mL (≈ 18.5 µM); in the data set on vaccinia virus (setting [16]), 10 µg/mL (≈ 26.4 µM); in data set [1] (setting [17]), 0.07 µg/mL (≈ 0.185 µM); in [1] (setting [18]), 0.1 µg/mL (≈ 0.264 µM); in data set [2], 0.07 µg/mL (≈ 0.185 µM); in data set [3], 0.2 µg/mL (≈ 0.527 µM). Moreover, the IC50 at 16 h in [9] and in [10] was greater than 200 µg/mL in each case. Further, the “specific antiviral activity against herpes simplex virus” value with herpes simplex virus [11] was “excellent and highly specific antiviral activity against herpes simplex virus; also recorded: very specific towards herpes simplex virus”. Moreover, the “toxicity in cell culture” value in the data set on cell culture [12] was “apparently nil; also recorded: apparent lack of toxicity in cell culture”. The “Reduction in virus yield” value in data set [8] (1 day after infection) is recorded as 4.3 log10 PFU/ml; in data set [8] (2 days after infection) it was 2.8 log10 PFU/ml; in data set [8] (3 days after infection), 2.0 log10 PFU/ml.

As for `O=c1[nH]c(=O)n([C@H]2C[C@H](O)[C@@H](CO)O2)cc1/C=C/I` [E-5-(2-iodovinyl)-2'-deoxyuridine], the IC50 with vaccinia virus (setting [15]) is 1 µg/mL (≈ 2.63 µM); in the data set with vaccinia virus (setting [16]) it was 10 µg/mL (≈ 26.3 µM); in [1] (setting [17]), 0.02 µg/mL (≈ 0.0526 µM); in data set [1] (setting [18]), 0.01 µg/mL (≈ 0.0263 µM); in data set [2], 0.01 µg/mL (≈ 0.0263 µM); in data set [3], 0.01 µg/mL (≈ 0.0263 µM). Besides, the values for the IC50 at 16 h in data set [9] and in data set [10] were 80 µg/mL (≈ 210 µM) and 150 µg/mL (≈ 395 µM), respectively. Also, the Antiviral index in data set [13] came out at 15000. Besides, in [4], the “ID50, (Methyl-^3 H)TdR incorporation into cell DNA (data in parentheses)” value is 70 µg/mL (≈ 184 µM). Also, in data set [5], the “ID50, (2-^14 C)UdR incorporation into cell DNA (data in parentheses)” value was 70 µg/mL (≈ 184 µM). Also, the “Antiviral index (numbers in parentheses)” value in data set [6] is given as 7000. The “antiviral activity against herpes simplex virus, reported” value in the data set with herpes simplex virus [14] is “specific antiviral activity against herpes simplex virus”. Besides, the “toxicity in cell culture, reported” value in the data set on cell culture [7] is recorded as “low toxicity in cell culture”.
